From US8853234B2, “Quinolone analogs and methods related thereto” (Senhwa Biosciences, Inc., priority 2007, dated 2014)
Like-named read-outs stand apart in the source and are kept apart here.

Assays:
[1] = tested on: A375 cell xenograft tumors; assay: A375 cell xenograft tumor inhibition; type: in vivo, rodents; conditions: seven days
Description: (§1) Compounds A1, A2 and A3 also were tested for tumor inhibition in xenograft rodents. Rodents having A375 cell xenograft tumors were administered 100 mg/kg, 75 mg/kg and 100 mg/kg doses of Compound A1, A2 and A3, respectively, by oral delivery twice a day. […] Also, rodents having MiaPaCa xenograft tumors were administered 100 mg/kg doses of Compound A1 and A3 by oral delivery twice per day.

MiaPaCa xenograft tumors = assay: MiaPaCa xenograft tumor inhibition; type: in vivo, rodents; conditions: 100 mg/kg oral twice per day, twenty-two days
Description: as §1

[2] = tested on: a variety of cell types that are representative of different cancers; assay: Alamar Blue cell viability assay, variety of cell types representative of different cancers (Tables 12-14); type: cell-based; conditions: read-out: IC50
Description: A representative cell-proliferation assay protocol using Alamar Blue dye (stored at 4° C., use 20 ul per well) is described hereafter.
96-Well Plate Setup and Compound Treatment
a. Split and trypsinize cells.
b. Count cells using hemocytometer.
c. Plate 4,000-5,000 cells per well in 100 μl of medium and seed into a 96-well plate according to the following plate layout. Add cell culture medium only to wells B10 to B12. Wells B1 to B9 have cells but no compound added.
d. Add 100 μl of 2× drug dilution to each well in a concentration shown in the plate layout above. At the same time, add 100 μl of media into the control wells (wells B10 to B12). Total volume is 200 μl/well.
e. Incubate four (4) days at 37° C., 5% CO2 in a humidified incubator.
f. Add 20 μl Alamar Blue reagent to each well.
g. Incubate for four (4) hours at 37° C., 5% CO2 in a humidified incubator.
h. Record fluorescence at an excitation wavelength of 544 nm and emission wavelength of 590 nm using a microplate reader.
In the assays, cells are cultured with a test compound for approximately four days, the dye then is added to the cells and fluorescence of […] dye is detected after approximately four hours. Different types of cells can be utilized in the assays (e.g., HCT-116 human colorectal carcinoma cells, PC-3 human prostatic cancer cells and MiaPaca human pancreatic carcinoma cells). Anti-proliferative effects of representative compounds are provided hereafter.
(§2) Inhibitory activity on cell proliferation of Compounds A1, A2 and A3 was determined using an Alamar Blue cell viability assay (e.g., Example 39 herein) using a variety of cell types that are representative of different cancers Inhibition values (IC50) are presented in micromolar concentrations in the following table (Table 12).
as §2, with “representative compounds of the invention” for “Compounds A1, A2 and A3”, “Table 13 and Table 14.” for “the following table (Table 12).”

[3] = Homo sapiens, A-375, A375, Skin, Epithelial
[4] = Homo sapiens, BXPC-3, BXPC3, Pancreas, Epithelial
[5] = Homo sapiens, HCT-116, HCT-116, Colorectal, Epithelial
[6] = Homo sapiens, HL60/MX2, HL60/MX2, Hematopoetic, Lymphoma
[7] = Homo sapiens, HL-60, HL60, Hematopoetic, Lymphoma
[8] = Homo sapiens, HT-29, HT-29, Colorectal, Epithelial
[9] = Homo sapiens, Jurkat, Hematopoetic, Lymphoma
[10] = Homo sapiens, K562, K562, Hematopoetic, Lymphoblast
[11] = Homo sapiens, LNCaP, Prostate, Fibroblastoid
[12] = Homo sapiens, MCF7, MCF-7, Breast, Mammary carcinoma
[13] = Homo sapiens, MDA-MB-231, MDA-MB-231, Breast, Epithelial
[14] = Homo sapiens, MIA PaCa-2, Miapaca-2, Pancreas, Epithelial
[15] = Homo sapiens, NCI-H460, H460, Lung, Epithelial
[16] = Homo sapiens, NCI-H1299, H1299, Lung, NSCL
[17] = Homo sapiens, PANC-1, PANC-1, Pancreas, Epithelial
[18] = Homo sapiens, SAOS-2, Saos-2, Bone, Epithelial
[19] = Homo sapiens, SK-MES-1, SK-MES-1, Lung, Sqaumous carcinoma
[20] = Homo sapiens, SK-OV-3, SK-OV-3, Ovary, Epithelial
[21] = Homo sapiens, U2OS, Bone, Epithelial
[22] = Miapaca-R5, Pancreas, Epithelial

SMILES | A375 tumor growth inhibition relative to untreated control group ([1]; 100 mg/kg oral twice a day) | IC50 [2, 3] [µM] | IC50 [2, 4] [µM] | IC50 [2, 5] [µM] | IC50 [2, 6] [µM] | IC50 [2, 7] [µM] | IC50 [2, 8] [µM] | IC50 [2, 9] [µM] | IC50 [2, 10] [µM] | IC50 [2, 11] [µM] | IC50 [2, 13] [µM] | IC50 [2, 14] [µM] | IC50 [2, 15] [µM] | IC50 [2, 16] [µM] | IC50 [2, 18] [µM] | IC50 [2, 19] [µM] | IC50 [2, 20] [µM] | IC50 [2, 21] [µM] | IC50 [2, 22] [µM] | IC50 ([2]; PC-3, Prostate, Epithelial) [µM] | also measured
Cc1cnc(CNC(=O)c2c(=O)c3ccc(N4CCN(C)CC4)nc3n3c2sc2ccccc23)cn1 [Compound A1] | significantly inhibited A375 tumor growth | 0.09 | 0.056 | 0.097 | 0.244 | 0.264 | 0.073 | 0.069 | 0.14 | 0.077 | 0.105 | 0.103 | 0.142 | 0.112 | 0.264 | 0.105 | 0.215 | 0.752 | 0.149 | 0.6 | MiaPaCa tumor growth inhibition relative to untreated control group (MiaPaCa xenograft tumors): significantly inhibited MiaPaCa tumor growth; IC50 [2, 12]: 0.348 µM; IC50 [2, 17]: 0.148 µM
Cc1cnc(CNC(=O)c2c(=O)c3ccc(N4CCCN(C)CC4)nc3n3c2sc2ccccc23)cn1 [Compound A2] | – | 0.023 | 0.035 | 0.032 | 0.147 | 0.083 | 0.042 | 0.025 | 0.042 | 0.029 | 0.052 | 0.036 | 0.09 | 0.069 | 0.124 | 0.021 | 0.064 | 0.089 | 0.034 | 0.089 | A375 tumor growth inhibition relative to untreated control group ([1]; 75 mg/kg oral twice a day): significantly inhibited A375 tumor growth; IC50 ([2]; Homo sapiens, COLO 205, COLO-205, Colorectal, Epithelial): 0.096 µM
O=C(NCCNC1CC1)c1c(=O)c2ccc(N3CCOCC3)nc2n2c1sc1ccccc12 [Compound A3] | significantly inhibited A375 tumor growth | 0.07 | 0.071 | 0.093 | 0.219 | 0.16 | 0.102 | 0.06 | 0.12 | 0.045 | 0.139 | 0.122 | 0.123 | 0.102 | 0.249 | 0.134 | 0.279 | 0.476 | 0.133 | 0.563 | MiaPaCa tumor growth inhibition relative to untreated control group (MiaPaCa xenograft tumors): significantly inhibited MiaPaCa tumor growth; IC50 [2, 12]: 0.267 µM; IC50 [2, 17]: 0.103 µM
